Patent US20210161840A1, “COMPOSITIONS AND METHODS FOR TREATMENT OF IRON OVERLOAD” (priority 2018, published 2021)

Columns and labels:
[1] = Keberle, 1964; cited from earlier work
[2] = Keberle, 1964; cited from earlier work; remark: listed apart in the source
[3] = Keberle, 1964; cited from earlier work; remark: listed apart in the source
[4] = Keberle, 1964; cited from earlier work; remark: listed apart in the source
[5] = system: doxorubicin-induced cardiomyopathy; experiment: Doxorubicin-induced cardiomyopathy in mice; format: in vivo, C57BL/6 mice
Protocol: The purpose of this study was to assess the protective effect of dexrazoxan or the zinc-dexrazoxan complex, administered with or without Ga-DFO, against doxorubicin-induced cardiomyopathy.
C57BL/6 mice are injected once with doxorubicin, 20 mg/kg, i.p., and then divided into the following 5 groups: Group 1: untreated; Group 2: treated with dexrazoxan single dose of 400 mg/kg i.v.; Group 3: treated with the zinc complex of dexrazoxan single dose of 100 mg/kg i.v.; Group 4: treated with the Ga-DFO complex 6 mg/kg, and Group 5: treated with the zinc complex of dexrazoxan single dose of 50 mg/kg i.v. together with Ga-DFO 4 mg/kg. The animals are monitored for 21 days, measuring their survival (Kaplan-Meier curves). On Day 21 the animals are sacrificed, and their hearts are assessed histologically for cardiac remodeling and hypertrophy (collagen % or area).

| SMILES | relative stability constant of DFO complex with Fe(III) [1] | relative stability constant of DFO complex with Zn(II) [2] | relative stability constant of DFO complex with Cu(II) [3] | relative stability constant of DFO complex with Ga(III) [4] | survival ([5]; Day 15 after doxorubicin 20 mg/kg i.p., about 90% of untreated mice die) | collagen % of the area (cardiac histology) ([5]; Day 21 after doxorubicin 20 mg/kg i.p., untreated about 10-12%) |
| --- | --- | --- | --- | --- | --- | --- |
| CC(=O)N(O)CCCCCNC(=O)CCC(=O)N(O)CCCCCNC(=O)CCC(=O)N(O)CCCCCN [DFO, N′-[5-(acetyl-hydroxy-amino)pentyl]-N-[5-[3-(5-aminopentyl-hydroxy-carbamoyl)propanoylamino]pentyl]-N-hydroxy-butane diamide] | 10^31 | 10^11 | 10^14 | 10^28 |  |  |
| C[C@@H](CN1CC(=O)NC(=O)C1)N1CC(=O)NC(=O)C1 [dexrazoxan] |  |  |  |  | about 50% | about 9% |
